For series [1], the system named is tetradecanoylphorbol 13-acetate (TPA) induced ear edema. The series can be described thus: TPA-induced ear edema model. Type of series: in vivo, mice. The procedure: A stock solution of TPA was prepared by dissolving TPA in DMSO, 1 mg/mL, and was stored frozen at −80° C. For study B-E, a working solution was prepared with 200 μL of the TPA stock solution added to 800 μL acetone. The working solution was used the same day as it was prepared.
Each cage was identified by a cage card marked with study number, group number, ethical approval number, sex and animal ear numbers. The animals were individually marked on the tail with transverse lines corresponding to the animals' number, using a permanent-ink felt pen. An illustration of the protocols used for the different treatments is outlined in Table 4. The compounds were tested according to the same protocols with necessary modifications.
Intraperitoneal (i.p.) injections were performed by giving 100 μL in the lower right quadrant of the abdomen. Subcutaneous injections were done with 100 μL in the neck region. Intranasal administration was performed by letting the mouse inhale droplets into the nostrils, total volume 40 μL. All administrations were done on non-anesthetized mice.
(§1) Both outer ears of a non-anesthetized mouse were washed with mild soap (Palmolive, Sweden) using a soft tooth brush, the ears were dried with tissue and cleaned with tissue soaked with acetone. After allowing the acetone to evaporate, TPA or AA was applied on both sides, 10 μL, on each side of the ear with care to cover the whole ear. The mouse was held for 20 seconds to allow the solvent to evaporate.
Intraperitoneal injections were given in the lower right quadrant of the abdomen with the animal held in a supine position. Subcutaneous (s.c.) injections were given in the neck of the animals. Intranasal administrations were given to mice held in a slightly reclining position. With an adjustable micro-pipette 40 μL of the test substance was given in droplets on the nostrils and the mouse was allowed to aspirate at free will.
(§2) The ears of non-anesthetized mice were measured at different time points for up to 96 hours after the TPA was administered, or up to 24 hours for the AA model. The first measurements were done before the edema was induced. The thickness was recorded with a spring loaded dial micrometer (Limit, Thickness Gauge, accuracy 0.01 mm, contact area Ø6 mm, Luna AB, Allingsås, Sweden) in triplicates at all time points per ear.
(§3) The average thickness for both ears on a mouse was calculated and compared to the average thickness of the ears at the starting time point. The value obtained at the start of the experiment was set as 100%. The peak values and area under the curve (AUC) values for the treatment groups were calculated and compared to the inflamed control group, treated with PBS (set as 100%), and expressed as a percentage change (Δ% AUC).
(§4) Area under the curve (AUC) with base line set as 100 was calculated using GraphPad Prism version 4.03 for Windows (GraphPad Software, San Diego Calif. USA, www.graphpad.com).
AUC reduction and P-values were calculated against the positive control (TPA or AA+PBS).

The subject of series [2] is arachidonic acid (AA) induced ear edema. The series can be described thus: Arachidonic acid (AA) induced ear edema model. Type of series: in vivo, mice. The following applies: 10 μg one single s.c. injection 20 minutes before AA; compared to PBS control. The procedure:
A stock solution of AA was prepared by diluting AA in acetone, 4 mg/10 μL, and was stored frozen at −80° C. A final working solution, 1 mg/10 μL, in acetone was prepared. The working solution was used within one hour after preparation.
as §1, §2, §3, §4
In addition to the experiments done with the control compounds and IDX0001, all other test compounds were investigated in a similar fashion in the TPA and/or AA ear edema models, where the test compounds were given subcutaneously (10 μg) 20 minutes before induction of edema. The results were expressed as reduction of peak value and reduction of area under curve (AUC) in Table 5.

Regarding “G*G*A*ACAGTTCGTCCAT*G*G*C (phosphorothioate linkages, as printed in the source, key not given here) [IDX0150, oligonucleotide used as control; * = phosphorothioate modification]”, the “average inflammatory peak value of swelling” value in series [1] (FIG. 2, 100 μg IDX0150, combined from 10 experiments, vs PBS vehicle with TPA, P<0.001) is given as “very high statistical significant reduction in peak values”. The “Reduction of AUC compared to PBS” value in series [1] (Study A / FIG. 1, 100 μg, one single injection (i.p. in Study A, s.c. in FIG. 1) 20 min before TPA, day 0) is recorded as −38.9%. Further, the “reduction of AUC” value in series [1] (Study B, 100 μg s.c. 4 days before induction of edema) is reported as “no reduction of AUC”; in series [1] (Study C (repeat of B), 100 μg s.c. 4 days before induction of edema), −22%; in series [1] (Study D, 100 μg s.c. 2 days before induction of edema), −16.5%; in series [1] (Study E, 100 μg s.c. same day, approx. 20 min before induction), −27.3%; in series [1] (Study F, equal doses 50 μg s.c. same day as swelling induced), −31.1%; in series [1] (Study G, therapeutic, 100 μg s.c. 2 hours after induction of edema), −42.3%. Also, the “reduction of AUC” value in series [1] (Study H, 100 μg intranasal 4 days before swelling induced) is −25.7%; in series [1] (Study I, 100 μg intranasal day 0, same day as edema induced), −28.4%; in series [1] (Study K dose response, 0.1 μg s.c. day 0), −13.9%; in series [1] (Study K dose response, 1 μg s.c. day 0), −16.3%; in series [1] (Study K dose response, 10 μg s.c. day 0), −27.9%; in series [1] (Study K dose response, 100 μg s.c. day 0), −45%. The “reduction of AUC” value in series [1] (Study O, 10 μg given s.c. on day 0 (Table 4: i.n.)) was −25.5%. Moreover, in series [1] (Study J, therapeutic, 100 μg intranasal 2 hours after induction), the AUC reduced is on record as −28.8%. Further, in series [2], the “AUC reduction (%) AA” value is reported as −89.4%.

Values taken from patent publication US8410068B2, “Compounds for the treatment or alleviation of edema, and methods for their use” (Index Pharmaceuticals AB, priority 2007, dated 2013).
